Assay results reported in patent US20220213052A1, “INHIBITORS OF RNA-BINDING PROTEINS, COMPOSITIONS THEREOF, AND THERAPEUTIC USES THEROF” (The University of North Carolina at Chapel Hill, priority 2019, published 2022).

Assays:
MDA-MB-231 cells = assay: Matrigel invasion assay; assay type: cell-based; settings: 10 μM; 24 h pretreatment, 20 h incubation
Procedure: To examine the anti-metastatic effect of compounds of the present technology, an invasion assay using Matrigel Invasion Chambers coated with Matrigel Matrix was performed. To perform the assays, MDA-MB-231 cells pretreated with compounds for 24 hours are added to the chambers and then incubated for 20 hours. Cells that remained on the upper surface of the chamber are completely removed with a cotton swab. Cells that emigrated or invaded through the membrane/Matrigel to the bottom of the chamber were fixed and stained with 0.2% crystal violet and photographed.

[1] = target: T1, full-length human HuR protein (Homo sapiens, UniProt Q15717); assay: FP assay of HuR-Msi1 ARE binding inhibition; settings: HuR-Msi1 ARE interaction; read-out: HuR Ki via FP assay
T1 construct: full-length human HuR protein was produced by the KU COBRE-PSF Protein Purification Group; made in house
How it was run: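 Fluorescence polarization competition using full-length human HuR protein and a 3′-fluorescein-labelled 16-nt Msi1 ARE RNA. A fluorescein-labelled degenerate 16-nt RNA served as negative control.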

[2] = target: T2, RNA-binding protein Lin-28 homolog B (LIN28B) (Homo sapiens, UniProt Q6ZN17); assay: LIN28B FP assay
T2 sequence (Q6ZN17 1-250): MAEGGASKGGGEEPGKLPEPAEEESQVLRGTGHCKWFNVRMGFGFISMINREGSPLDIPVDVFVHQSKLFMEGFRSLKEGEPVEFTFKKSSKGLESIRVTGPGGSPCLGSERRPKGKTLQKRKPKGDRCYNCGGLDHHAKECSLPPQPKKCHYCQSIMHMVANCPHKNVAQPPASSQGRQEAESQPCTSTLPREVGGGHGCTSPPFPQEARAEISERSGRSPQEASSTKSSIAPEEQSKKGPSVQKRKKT

[3] = target: T3, HuR-bound target mRNAs in MDA-MB-231 cells (Homo sapiens, UniProt Q15717); assay: Ribonucleoprotein immunoprecipitation (RNP-IP) pull-down assay; assay type: cell-based; settings: 10 μM
T3 construct: endogenous in cells; host or cells: MDA-MB-231
Procedure: Pull-down Assay #2—Ribonuleoprotein Immunoprecipitation (RNP-IP): Cells with HuR overexpression were treated with compounds, then the cell cytoplasmic lysates collected using NE-PER Nuclear and Cytoplasmic Extraction Kit (Thermo Scientific), then the cell cytoplasmic lysates incubated with anti-HuR antibody, and subsequently Protein G agarose beads (from Roche) added to pull down HuR protein. The HuR-bound target mRNAs pulled down were measured by qRT-PCR using a reported method (Ji, Q., et al., MicroRNA miR-34 inhibits human pancreatic cancer tumor-initiating cells. PLoS One, 2009. 4(8): p. e6816, incorporated herein by reference). Mouse IgG will be used as negative control. Compounds of the present technology block the target mRNAs pulled down by HuR antibody.

[4] = test system: triple-negative breast cancer cell line MDA-MB-231; assay: Cytotoxicity assay (WST-8), MDA-MB-231; assay type: cell-based; settings: Homo sapiens, 96 h incubation
How it was run: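 Cells (3,000-5,000/well) were treated in triplicate with titrated compounds for 96 h, then WST-8 was added for 1-3 h at 37° C and absorbance read at 450 nm (650 nm correction). IC50 (50% growth inhibition vs vehicle) came from sigmoid curve fitting.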

[5] = test system: MDA-MB-231 mouse xenograft; assay: MDA-MB-231 mouse xenograft model, KH-39 alone and with docetaxel; assay type: in vivo, mice; settings: after three-week treatment; KH-39 i.p. 50 mg/kg 5 times per week; TXT i.v.; ***P<0.001, ****P<0.0001, n=12
Source text: Cytotoxicity assays (as described earlier in this disclosure) for various cancer cell lines will also be performed utilizing concentrations of a compound of the present technology that are below the lethal threshold for the compound for the particular cancer (a “sub-lethal concentration”) in combination with a chemotherapeutic compound (e.g., docetaxel or doxorubicin) to illustrate compounds of the present technology sensitize cancer cell lines to chemotherapy. By way of illustration in an in vivo model, in vivo antitumor efficacy of KH-39 was examined in combination with docetaxel (a first-line chemotherapy for human breast cancer) in a MDA-MB-231 mouse xenograft model. For this, tumor-bearing female athymic mice were provided according to the protocols described earlier in the present disclosure and were randomized into four groups. One group of mice was treated with KH-39 (i.p. 50 mg/kg, 5 times per week), one group with docetaxel (TXT; i.v. at the dosages and time intervals indicated in FIG. 12), one group with a combination of KH-39 and TXT (KH-39 i.p. 50 mg/kg, 5 times per week and TXT i.v. at the dosages and time intervals indicated in FIG. 12), and one group of mice as the vehicle control. FIG. 12 illustrates the results, providing the tumor growth curves for each group.

T1 sequence (Q15717 whole entry): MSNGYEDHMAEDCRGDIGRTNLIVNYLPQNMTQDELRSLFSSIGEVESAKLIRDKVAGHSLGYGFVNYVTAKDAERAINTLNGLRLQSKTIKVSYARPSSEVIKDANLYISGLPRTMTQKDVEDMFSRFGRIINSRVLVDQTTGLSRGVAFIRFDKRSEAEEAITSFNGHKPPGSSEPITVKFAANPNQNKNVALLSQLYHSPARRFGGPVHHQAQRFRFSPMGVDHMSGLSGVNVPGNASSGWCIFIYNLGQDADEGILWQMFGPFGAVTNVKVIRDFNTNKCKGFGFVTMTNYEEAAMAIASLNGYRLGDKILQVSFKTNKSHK
T3 sequence (Q15717 2-326 limits assumed): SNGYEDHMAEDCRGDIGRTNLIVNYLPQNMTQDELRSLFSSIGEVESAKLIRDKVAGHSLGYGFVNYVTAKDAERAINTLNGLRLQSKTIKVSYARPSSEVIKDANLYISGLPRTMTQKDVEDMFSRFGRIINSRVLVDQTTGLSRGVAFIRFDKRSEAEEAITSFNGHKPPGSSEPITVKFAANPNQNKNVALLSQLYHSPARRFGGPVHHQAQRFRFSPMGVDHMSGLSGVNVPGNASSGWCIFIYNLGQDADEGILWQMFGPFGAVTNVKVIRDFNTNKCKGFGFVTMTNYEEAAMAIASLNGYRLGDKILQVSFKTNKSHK

## CC(C)(C)c1ccc(C(=O)Nc2ccc3[nH]c(C(=O)NO)cc3c2)cc1 [KH-39, 5-(4-(tert-butyl)benzamido)-N-hydroxy-1H-indole-2-carboxamide]
MDA-MB-231 cells
  MDA-MB-231 cell invasion: clearly inhibited MDA-MB-231 cell invasion
[1]
  Ki: 0.65 µM
[2]
  Ki: > 20 µM
[3]
  HuR pull-down of target mRNAs: at least partially block HuR pull-down of target mRNAs
[4]
  IC50: 4.74 µM
[5]
  relative tumor sizes versus control group: significantly smaller than those in control group
